Results reported in patent publication US11040035B2, “3-oxo-2,6-diphenyl-2,3-dihydropyridazine-4-carboxamides” (BAYER PHARMA AKTIENGESELLSCHAFT, priority 2016, dated 2021).
Like-named read-outs stand apart in the source and are kept apart here.

Key:
[1] = target: T1, AHR (Homo sapiens, UniProt P35869); test: In vitro assay 2: agonism in human cell line (transactivation assay)
T1 sequence (P35869 11-848): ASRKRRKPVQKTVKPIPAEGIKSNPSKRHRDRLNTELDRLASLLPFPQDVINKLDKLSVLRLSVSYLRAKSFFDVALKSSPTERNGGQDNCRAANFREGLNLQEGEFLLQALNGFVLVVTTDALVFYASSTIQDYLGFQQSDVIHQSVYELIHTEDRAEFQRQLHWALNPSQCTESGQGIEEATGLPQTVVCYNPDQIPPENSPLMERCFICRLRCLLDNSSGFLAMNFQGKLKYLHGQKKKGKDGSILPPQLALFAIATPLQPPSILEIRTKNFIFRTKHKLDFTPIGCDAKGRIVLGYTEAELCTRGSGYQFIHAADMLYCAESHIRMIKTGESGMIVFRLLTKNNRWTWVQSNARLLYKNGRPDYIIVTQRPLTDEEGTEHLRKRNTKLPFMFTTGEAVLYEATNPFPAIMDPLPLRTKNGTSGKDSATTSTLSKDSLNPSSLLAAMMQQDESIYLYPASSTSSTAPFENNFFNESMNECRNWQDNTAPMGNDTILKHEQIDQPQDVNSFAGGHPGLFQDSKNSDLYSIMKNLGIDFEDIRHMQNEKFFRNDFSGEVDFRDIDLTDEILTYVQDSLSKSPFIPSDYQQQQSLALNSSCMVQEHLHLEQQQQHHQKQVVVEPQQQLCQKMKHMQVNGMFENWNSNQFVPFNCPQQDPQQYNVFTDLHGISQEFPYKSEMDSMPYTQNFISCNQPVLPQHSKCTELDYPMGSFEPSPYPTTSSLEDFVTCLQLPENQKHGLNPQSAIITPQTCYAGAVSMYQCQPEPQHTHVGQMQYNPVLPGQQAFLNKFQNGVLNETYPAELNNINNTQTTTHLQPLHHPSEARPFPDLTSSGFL

[2] = test system: AHR-regulated gene CYP1A1; test: In vitro assay 3: AHR-regulated CYP1A1 expression in human cell line (U937, qPCR)
[3] = target: T1, AHR; test: In vitro assay 1: antagonism in human cell line (transactivation assay, kynurenic acid prestimulated); settings: Assay 1: AHR-luc Hum Antagonism IC50 [M], 150 μM kynurenic acid, 20 hours, firefly luciferase
[4] = Assay 2: AHR-luc Hum Agonism IC50 [M], no kynurenic acid, 20 hours, firefly luciferase
[5] = Homo sapiens, U-937, 6 h, read-out: Assay 3: Hum CYP1A1 Antagonism IC50 [M], U937 cells, 200 μM KA, 6 hours, qPCR
[6] = read-out: Assay 2: AHR-luc Hum Agonism IC50, no kynurenic acid, 20 hours, firefly luciferase
[7] = read-out: Assay 3: Hum CYP1A1 Antagonism IC50, U937 cells, 200 μM KA, 6 hours, qPCR

Structure (SMILES)	IC50 [1, 4] [M]	IC50 [2, 5] [M]	IC50 [3] [M]	IC50 [1, 6] [M]	IC50 [2, 7] [M]
O=C(N[C@H](CO)Cc1ccccc1)c1cc(-c2ccc(C(F)(F)F)cc2)nn(-c2cccc(F)c2)c1=O [Example 251, 2-(3-Fluorophenyl)-N-[(2S)-1-hydroxy-3-phenylpropan-2-yl]-3-oxo-6-[4-(trifluoromethyl)phenyl]-2,3-dihydropyridazine-4-carboxamide]	> 2e-05	3.67e-08	5.09e-06	–	–
O=C(NC(CO)C1CCOC1)c1cc(-c2ccc(OC(F)(F)F)cc2)nn(-c2cccc(F)c2)c1=O (single isomer, unassigned) [Example 178, 2-(3-Fluorophenyl)-N-[2-hydroxy-1-(tetrahydrofuran-3-yl)ethyl]-3-oxo-6-[4-(trifluoromethoxy)phenyl]-2,3-dihydropyridazine-4-carboxamide]	–	–	1.27e-07	> 2e-05	1.13e-07
O=C(N[C@H]1COC[C@@H]1O)c1cc(-c2ccc(Cl)cc2)nn(-c2cccc(F)c2)c1=O [Example 167, 6-(4-Chlorophenyl)-2-(3-fluorophenyl)-N-[(3S,4R)-4-hydroxytetrahydrofuran-3-yl]-3-oxo-2,3-dihydropyridazine-4-carboxamide]	> 2e-05	2.03e-07	1.63e-07	–	–
Cc1ccc(-c2cc(C(=O)NCC(O)C(C)C)c(=O)n(-c3cccc(F)c3)n2)cc1 (single isomer, unassigned; enantiomer 1) [Example 11, 2-(3-Fluorophenyl)-N-(2-hydroxy-3-methylbutyl)-6-(4-methylphenyl)-3-oxo-2,3-dihydropyridazine-4-carboxamide, enantiomer 1]	> 2e-05	1.71e-07	7.94e-08	–	–
COC(=O)[C@@H](CO)NC(=O)c1cc(-c2ccc(Cl)cc2)nn(-c2cccc(F)c2)c1=O [Example 315, methyl N-{[6-(4-chlorophenyl)-2-(3-fluorophenyl)-3-oxo-2,3-dihydropyridazin-4-yl]carbonyl}-D-serinate]	> 2e-05	2e-06	8.53e-08	–	–
CC(O)CCNC(=O)c1cc(-c2ccc(C(F)(F)F)cc2)nn(-c2cccc(F)c2)c1=O (racemic) [Example 247, 2-(3-Fluorophenyl)-N-[(3RS)-3-hydroxybutyl]-3-oxo-6-[4-(trifluoromethyl)phenyl]-2,3-dihydropyridazine-4-carboxamide]	> 2e-05	1.71e-07	8.35e-08	–	–
Cc1cccc(-n2nc(-c3ccc(Cl)cc3)cc(C(=O)N[C@@H](C)CO)c2=O)c1 [Example 369, 6-(4-chlorophenyl)-N-[(2S)-1-hydroxypropan-2-yl]-2-(3-methylphenyl)-3-oxo-2,3-dihydropyridazine-4-carboxamide]	> 2e-05	> 1e-06	9.73e-07	–	–
O=C(NCC1(O)COC1)c1cc(-c2ccc(Cl)cc2)nn(-c2cccc(F)c2)c1=O [Example 331, 6-(4-chlorophenyl)-2-(3-fluorophenyl)-N-[(3-hydroxyoxetan-3-yl)methyl]-3-oxo-2,3-dihydropyridazine-4-carboxamide]	> 2e-05	1.42e-07	7.87e-08	–	–
CC(O)C(C)NC(=O)c1cc(-c2ccc(OC(F)(F)F)cc2)nn(-c2cccc(F)c2)c1=O (single isomer, unassigned) [Example 181, 2-(3-Fluorophenyl)-N-(3-hydroxybutan-2-yl)-3-oxo-6-[4-(trifluoromethoxy)phenyl]-2,3-dihydropyridazine-4-carboxamide]	–	2.12e-07	8.02e-08	> 2e-05	–
CC(CCO)NC(=O)c1cc(-c2ccc(C(F)(F)F)cc2)nn(-c2cccc(F)c2)c1=O (single isomer, unassigned; (-)) [Example 255, (−)-2-(3-Fluorophenyl)-N-(4-hydroxybutan-2-yl)-3-oxo-6-[4-(trifluoromethyl)phenyl]-2,3-dihydropyridazine-4-carboxamide]	–	–	1.09e-07	> 2e-05	3.89e-07
CC(NC(=O)c1cc(-c2ccc(Cl)cc2)nn(-c2cccc(F)c2)c1=O)C(O)C(F)(F)F (stereo not drawn) [Example 218, Stereoisomer no. 1 of 6-(4-chlorophenyl)-2-(3-fluorophenyl)-3-oxo-N-(4,4,4-trifluoro-3-hydroxybutan-2-yl)-2,3-dihydropyridazine-4-carboxamide]	–	1.51e-07	6.88e-08	> 2e-05	–
O=C(NC1(CO)CCC1)c1cc(-c2ccc(Cl)cc2)nn(-c2cccc(F)c2)c1=O [Example 213, 6-(4-Chlorophenyl)-2-(3-fluorophenyl)-N-[1-(hydroxymethyl)cyclobutyl]-3-oxo-2,3-dihydropyridazine-4-carboxamide]	> 2e-05	2.21e-07	8.72e-08	–	–

Compounds with a lower IC50 [3], results first:

IC50 [1, 4] [M]	IC50 [2, 5] [M]	IC50 [3] [M]	IC50 [1, 6] [M]	IC50 [2, 7] [M]	Structure (SMILES)
–	2e-06	4.02e-08	> 2e-05	–	O=C(N[C@H]1CC[C@@H]1O)c1cc(-c2ccc(Cl)cc2)nn(-c2cccc(F)c2)c1=O (single isomer, unassigned) [Example 336, (+)-6-(4-chlorophenyl)-2-(3-fluorophenyl)-N-(trans-2-hydroxycyclobutyl)-3-oxo-2,3-dihydropyridazine-4-carboxamide]
> 2e-05	–	3.78e-08	–	4.14e-08	O=C(NCC(O)C(F)(F)F)c1cc(-c2ccc(OC(F)(F)F)cc2)nn(-c2cccc(F)c2)c1=O (single isomer, unassigned) [Example 183, 2-(3-Fluorophenyl)-3-oxo-N-(3,3,3-trifluoro-2-hydroxypropyl)-6-[4-(trifluoromethoxy)phenyl]-2,3-dihydropyridazine-4-carboxamide]
> 2e-05	5.86e-08	3.75e-08	–	–	O=C(NCC(O)C(F)(F)F)c1cc(-c2ccc(Cl)cc2)nn(-c2cccc(F)c2)c1=O (stereo not drawn) [Example 25, 6-(4-Chlorophenyl)-2-(3-fluorophenyl)-3-oxo-N-(3,3,3-trifluoro-2-hydroxypropyl)-2,3-dihydropyridazine-4-carboxamide]
> 2e-05	3.22e-08	2.8e-08	–	–	C[C@@H](CO)CNC(=O)c1cc(-c2ccc(C(F)(F)F)cc2)nn(-c2cccc(F)c2)c1=O (single isomer, unassigned) [Example 329]
> 2e-05	1.31e-08	2.72e-08	–	–	O=C(N[C@H]1CCC[C@@H]1O)c1cc(-c2ccc(Cl)cc2)nn(-c2cccc(F)c2)c1=O [Example 115, 6-(4-Chlorophenyl)-2-(3-fluorophenyl)-N-[(1S,2S)-2-hydroxycyclopentyl]-3-oxo-2,3-dihydropyridazine-4-carboxamide]
> 2e-05	5.69e-08	1.63e-08	–	–	N#CC(CO)NC(=O)c1cc(-c2ccc(Cl)cc2)nn(-c2cccc(F)c2)c1=O (racemic) [Example 371, 6-(4-chlorophenyl)-N-[(1RS)-1-cyano-2-hydroxyethyl]-2-(3-fluorophenyl)-3-oxo-2,3-dihydropyridazine-4-carboxamide]
–	–	1.58e-08	> 2e-05	5.4e-08	O=C(N[C@@H]1COC[C@@H]1O)c1cc(-c2ccc(C(F)(F)F)cc2)nn(-c2cccc(F)c2)c1=O (single isomer, unassigned) [Example 345, (−)-2-(3-fluorophenyl)-N-(cis-4-hydroxytetrahydrofuran-3-yl)-3-oxo-6-[4-(trifluoromethyl)phenyl]-2,3-dihydropyridazine-4-carboxamide]
> 2e-05	–	1.24e-08	–	1.88e-08	COc1ccc(-c2cc(C(=O)NC(CO)C(F)(F)F)c(=O)n(-c3cccc(F)c3)n2)cc1 (single isomer, unassigned) [Example 101, 2-(3-fluorophenyl)-6-(4-methoxyphenyl)-3-oxo-N-(1,1,1-trifluoro-3-hydroxypropan-2-yl)-2,3-dihydropyridazine-4-carboxamide]
> 2e-05	6.22e-09	3.66e-09	–	–	O=C(N[C@H](CO)C(F)(F)F)c1cc(-c2ccc(C(F)F)cc2)nn(-c2cccc(F)c2)c1=O [Example 296, 6-[4-(Difluoromethyl)phenyl]-2-(3-fluorophenyl)-3-oxo-N-[(2R)-1,1,1-trifluoro-3-hydroxypropan-2-yl]-2,3-dihydropyridazine-4-carboxamide]
